Laboratory results published in the supplement of paper PMC10331698.
± gives the standard deviation of the averaged measurements.

How the values were obtained:
Assay in all cases: level (log10 ratio to DMSO vehicle control); higher = higher biomarker level / cell amount than vehicle control
Details in all cases: in DMSO
[1] = compound: CC(C)(C)C(=O)CC(=O)C(F)(F)C(F)(F)C(F)(F)F [(Heptafluorobutanoyl)pivaloylmethane]
Description: (§1)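 BioMAP Diversity Plus panel of 12 human primary cell co-culture systems (3C, 4H, LPS, SAg, BT, BF4T, BE3C, CASM3C, HDF3CGF, KF3CT, MyoF, Mphg). Compounds were added 1 h before stimulation and left for 24 h (MyoF 48 h; BT 72 h for soluble read-outs or 6 d for IgG). Biomarkers were read by ELISA, cytotoxicity by SRB, PBMC viability and proliferation by Alamar Blue. Each well value was divided by the mean of 8 DMSO control wells on the same plate and log10 transformed; duplicate blinded samples were tested at 4 concentrations.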

[2] = compound: NC(=O)C(F)(F)C(F)(F)C(F)(F)C(F)(F)C(F)(F)C(F)(F)C(F)(F)F [Perfluorooctanamide]
Description: as §1

[3] = compound: O=C(O)C(F)(F)C(F)(F)C(F)(F)C(F)(F)C(F)(F)C(F)(F)C(F)(F)C(F)(F)C(F)(F)C(F)(F)C(F)(F)C(F)(F)F [Perfluorotridecanoic acid]
Description: as §1

[4] = compound: O=C(O)C(F)(F)OC(F)(F)C(F)(F)OC(F)(F)C(F)(F)C(F)(F)C(F)(F)F [Perfluoro-3,6-dioxadecanoic acid]
Description: as §1

[5] = compound: CNS(=O)(=O)C(F)(F)C(F)(F)C(F)(F)C(F)(F)C(F)(F)C(F)(F)C(F)(F)C(F)(F)F [N-Methylperfluorooctanesulfonamide]
Description: as §1

[6] = compound: OCC(F)(F)C(F)(F)C(F)(F)C(F)(F)C(F)(F)C(F)F [1H,1H,7H-Dodecafluoro-1-heptanol]
Description: as §1

Test System | level (log10) ([1]; 6700 nM) | level (log10) ([1]; 20000 nM) | level (log10) ([1]; 60000 nM) | level (log10) ([2]; 6700 nM) | level (log10) ([2]; 20000 nM) | level (log10) ([2]; 60000 nM) | level (log10) ([3]; 1500 nM) | level (log10) ([3]; 4400 nM) | level (log10) ([3]; 13000 nM) | level (log10) ([3]; 40000 nM) | level (log10) ([4]; 6700 nM) | level (log10) ([4]; 20000 nM) | level (log10) ([4]; 60000 nM) | level (log10) ([5]; 6700 nM) | level (log10) ([5]; 20000 nM) | level (log10) ([5]; 60000 nM) | level (log10) ([6]; 6700 nM) | level (log10) ([6]; 20000 nM) | level (log10) ([6]; 60000 nM)
3C:CD87/uPAR | -0.0255 ± 0.056 | -0.0435 ± 0.026 | -0.0255 ± 0.033 | 0.0075 ± 0.011 | 0.004 ± 0.0099 | 0.0045 ± 0.0092 | 0.065 ± 0.025 | 0.0355 ± 0.039 | 0.066 ± 0.011 | 0.059 ± 0.016 | 0.0065 ± 0.013 | -0.0145 ± 0.011 | -0.083 ± 0.058 | -0.0125 ± 0.059 | -0.052 ± 0.011 | -0.0055 ± 0.032 | 0.023 ± 0.0028 | 0.002 ± 0.0099 | -0.0045 ± 0.012
3C:CXCL8/IL-8 | -0.015 ± 0.011 | -0.007 ± 0.045 | 0.016 ± 0.079 | -0.013 ± 0.0042 | 0.002 ± 0.031 | 0.047 ± 0.021 | 0.017 ± 0.025 | -0.01 ± 0.017 | -0.144 ± 0.19 | -0.715 ± 0.14 | -0.006 | -0.0025 ± 0.0064 | 0.0305 ± 0.013 | -0.0035 ± 0.0078 | 0.0575 ± 0.012 | 0.064 ± 0.0028 | 0.0125 ± 0.032 | 0.0115 ± 0.021 | 0.0265 ± 0.0064
3C:CXCL9/MIG | -0.007 ± 0.016 | -0.0045 ± 0.013 | 0.004 ± 0.0071 | 0.01 ± 0.0042 | 0.008 ± 0.014 | 0.031 ± 0.0014 | 0.0055 ± 0.0035 | 0.0005 ± 0.00071 | 0.003 ± 0.0085 | 0.0035 ± 0.00071 | -0.015 ± 0.02 | -0.0185 ± 0.019 | -0.002 ± 0.017 | 0.001 ± 0.0014 | -0.0075 ± 0.011 | 0.022 ± 0.0057 | 0.0065 ± 0.0078 | -0.0005 ± 0.015 | -0.0015 ± 0.0021
3C:HLA-DR | -0.0205 ± 0.013 | -0.0285 ± 0.005 | -0.092 ± 0.035 | 0.001 ± 0.034 | 0.002 ± 0.017 | 0.0095 ± 0.019 | -0.011 ± 0.0028 | -0.0135 ± 0.011 | -0.021 ± 0.02 | -0.0095 ± 0.011 | 0.0345 ± 0.04 | 0.021 ± 0.044 | 0.016 ± 0.071 | -0.0605 ± 0.012 | -0.102 ± 0.016 | -0.072 ± 0.028 | 0.008 ± 0.018 | -0.0055 ± 0.016 | -0.0105 ± 0.013
3C:Proliferation | -0.0155 ± 0.054 | -0.044 ± 0.033 | -0.379 ± 0.24 | 0.0165 ± 0.0021 | 0 ± 0.014 | -0.081 ± 0.0085 | -0.056 ± 0.048 | -0.025 ± 0.0085 | -0.348 ± 0.38 | -0.811 ± 0.1 | -0.0105 ± 0.0035 | 0.0325 ± 0.022 | -0.369 ± 0.13 | -0.024 ± 0.02 | -0.125 ± 0.041 | -0.338 ± 0.16 | -0.0365 ± 0.091 | -0.0885 ± 0.07 | -0.034 ± 0.045
3C:SRB | -0.001 ± 0.0057 | -0.003 ± 0.0071 | -0.061 ± 0.075 | 0.007 ± 0.013 | 0.0095 ± 0.005 | -0.015 ± 0.0099 | -0.017 ± 0.0085 | -0.0125 ± 0.0035 | -0.012 ± 0.016 | -0.0125 ± 0.028 | -0.016 ± 0.0071 | -0.0055 ± 0.019 | -0.149 ± 0.074 | 0.0145 ± 0.022 | -0.031 ± 0.0028 | -0.0675 ± 0.028 | -0.005 ± 0.0071 | -0.006 ± 0.0071 | -0.0025 ± 0.00071
4H:CCL2/MCP-1 | -0.0085 ± 0.012 | -0.006 ± 0.018 | -0.0195 ± 0.059 | -0.016 ± 0.0028 | -0.005 ± 0.0014 | -0.008 | 0.0035 ± 0.037 | -0.0025 ± 0.026 | -0.0095 ± 0.0092 | -0.033 ± 0.014 | -0.0225 ± 0.0092 | -0.0425 ± 0.011 | -0.093 ± 0.14 | 0.002 ± 0.017 | -0.064 ± 0.017 | -0.103 ± 0.027 | -0.0365 ± 0.016 | -0.028 ± 0.0085 | 0.0135 ± 0.093
4H:CCL26/Eotaxin-3 | -0.002 ± 0.0014 | 0.004 ± 0.0057 | 0.0145 ± 0.016 | 0.033 ± 0.055 | 0.021 ± 0.031 | 0.0275 ± 0.04 | -0.0145 ± 0.018 | -0.0395 ± 0.033 | -0.056 ± 0.0071 | -0.0655 ± 0.033 | 0.0145 ± 0.005 | -0.0035 ± 0.039 | 0.032 ± 0.048 | -0.0005 ± 0.018 | -0.0415 ± 0.032 | -0.0675 ± 0.025 | -0.0075 ± 0.0078 | -0.023 ± 0.0042 | -0.0155 ± 0.022
4H:CD62P/P-selectin | -0.045 ± 0.089 | -0.032 ± 0.078 | -0.076 ± 0.16 | -0.0005 ± 0.0078 | -0.0225 ± 0.022 | -0.02 ± 0.024 | -0.0285 ± 0.016 | -0.017 ± 0.0085 | 0.0125 ± 0.013 | 0.021 ± 0.011 | 0.015 ± 0.09 | 0.0205 ± 0.066 | 0.0165 ± 0.013 | 0.0265 ± 0.011 | -0.0345 ± 0.011 | -0.0685 ± 0.0092 | -0.003 ± 0.078 | 0.051 ± 0.067 | 0.032 ± 0.016
4H:CD87/uPAR | -0.005 ± 0.057 | -0.0135 ± 0.036 | 0.016 ± 0.12 | -0.0055 ± 0.037 | 0.0105 ± 0.021 | -0.0285 ± 0.012 | 0.0035 ± 0.028 | -0.03 ± 0.017 | -0.0175 ± 0.015 | -0.0515 ± 0.074 | -0.004 ± 0.0099 | -0.004 ± 0.0085 | -0.0175 ± 0.037 | -0.012 ± 0.12 | -0.0565 ± 0.071 | -0.046 ± 0.044 | 0.016 ± 0.014 | 0.001 ± 0.014 | -0.019 ± 0.031
4H:CD106/VCAM-1 | -0.0175 ± 0.019 | 0.021 ± 0.045 | -0.032 ± 0.03 | -0.023 | -0.0235 ± 0.0035 | -0.01 ± 0.03 | -0.028 ± 0.0071 | -0.065 ± 0.04 | -0.107 ± 0.0064 | -0.089 ± 0.018 | -0.0095 ± 0.018 | -0.0195 ± 0.022 | -0.039 ± 0.0099 | 0 ± 0.0014 | 0.015 ± 0.0042 | -0.0435 ± 0.032 | 0.009 ± 0.034 | -0.016 ± 0.0085 | -0.0125 ± 0.0092
4H:SRB | -0.007 ± 0.0014 | -0.005 ± 0.0071 | -0.0095 ± 0.016 | -0.0005 ± 0.005 | -0.008 ± 0.0057 | 0.0085 ± 0.028 | -0.0115 ± 0.0064 | -0.022 ± 0.0014 | -0.054 ± 0.042 | -0.443 ± 0.037 | -0.005 ± 0.018 | -0.002 ± 0.0057 | -0.065 ± 0.041 | -0.0045 ± 0.0092 | -0.041 ± 0.0014 | -0.0635 ± 0.054 | -0.0055 ± 0.028 | -0.0215 ± 0.012 | -0.0075 ± 0.029
4H:VEGFR2 | 0 ± 0.011 | -0.012 ± 0.0071 | -0.0105 ± 0.032 | -0.025 ± 0.0099 | -0.0405 ± 0.037 | -0.021 ± 0.025 | 0.0375 ± 0.0078 | -0.0205 ± 0.037 | -0.0125 ± 0.1 | -0.257 ± 0.1 | -0.035 ± 0.065 | -0.0105 ± 0.035 | -0.0755 ± 0.036 | -0.0425 ± 0.032 | -0.096 ± 0.0085 | -0.0995 ± 0.00071 | -0.011 ± 0.044 | 0.0075 ± 0.061 | 0.014 ± 0.03
BE3C:CD54/ICAM-1 | -0.0055 ± 0.005 | -0.008 ± 0.0014 | -0.0185 ± 0.011 | -0.012 ± 0.0042 | -0.0075 ± 0.012 | -0.022 ± 0.033 | 0.0015 ± 0.04 | -0.0285 ± 0.015 | -0.011 ± 0.0085 | 0.0035 ± 0.0021 | -0.0105 ± 0.0021 | -0.024 ± 0.013 | 0.008 ± 0.0057 | 0.0055 ± 0.0021 | 0.0255 ± 0.0021 | 0.016 ± 0.0071 | 0.0205 ± 0.029 | 0.01 ± 0.027 | 0.0145 ± 0.012
BE3C:CD87/uPAR | 0.0035 ± 0.032 | 0.0235 ± 0.0078 | -0.0045 ± 0.005 | -0.0475 ± 0.0035 | -0.0065 ± 0.035 | -0.004 ± 0.028 | 0.012 ± 0.038 | -0.013 ± 0.0071 | 0.006 ± 0.018 | 0.0335 ± 0.03 | 0.018 ± 0.0014 | 0.0455 ± 0.025 | 0.102 ± 0.0099 | 0.0125 ± 0.015 | 0.0575 ± 0.061 | 0.083 ± 0.011 | 0.018 ± 0.033 | 0.011 ± 0.0028 | 0.013 ± 0.011
